In one test the target is PARP2 (Homo sapiens, UniProt Q9UGN5). Nature of the test: PARP2 chemiluminescent assay. Format: biochemical. The conditions noted are these: recombinant PARP2 enzyme activity, chemiluminescence. The protocol:
(§1) Mix the solution of recombinant poly ADP ribotransferase 1 and 2 (PARP1 and PARP2) (40 ng enzyme/well) and the compounds to be tested, respectively. And then added to a 96-well plate coated with […] mixture, incubated at room temperature for 1 h. Then add 50 μL 0.3 ng/mL Streptavidin-HRP to each well. The plates were incubated for 30 minutes at room temperature. Finally, the plates were treated with streptavidin-HRP followed by addition of the ELISA ECL substrate to produce chemiluminescence that can then be measured using a chemiluminescence reader. The inhibition rate of the compound to PARP1/2 enzyme activity was calculated according to the following formula. [formula] IC50 value is obtained by fitting the s-shaped dose response curve equation by using XL Fit software. The curve equation is Y=100/(1+10^(log C−log IC50)), C is the compound concentration. Table 1 summarizes the inhibitory effects of compounds on PARP1 and PARP2 enzyme activity (IC50), wherein +++++ indicates IC50≤1 nM; ++++ indicates 1<IC50≤10 nM; +++ indicates 10 nM<IC50≤100 nM: ++ indicates 100 nM<IC50≤1 μM; + indicates IC50>1 μM.

A further test has as its target PARP1 (Homo sapiens, UniProt P09874). Nature of the test: PARP1 chemiluminescent assay. As to conditions: recombinant PARP1 enzyme activity, chemiluminescence. The test is classed as biochemical. On the procedure: as §1
The next test relates to MDA-MB-436 cells. Nature of the test: Inhibition of proliferation of human breast cancer MDA-MB-436 cell line (CCK-8, 7 days). Format: cell-based. As to conditions: Homo sapiens, 168 h, proliferation of MDA-MB-436, 7 days. On the procedure: The cells were cultured in complete medium (DMEM medium +10% FBS+Insulin+glutathione). When the confluence reached about 80%, cells were digested and gently dispensed from the bottom of the dish with a 1 mL pipette. Cell suspension was collected and centrifuged at 500 rpm for 3 min. The supernatant was discarded, and the cell pellet were re-suspended in complete medium. The cells were seeded into a culture dish at an appropriate proportion, and then cultured in a 5% CO2 incubator at 37° C. The assay was carried out when the cells were in optimum condition and the confluence was reached 80%. Cells were harvested in the logarithmic growth phase by using 1 mL pipette gently and then centrifugated at 500 rpm for 3 min. The cells were resuspended by using refresh medium after removing the supernatant and then the cells were counted. The cells were seeded at 3000/well in a 96 well plate and incubated at 37° C. 5% CO2 incubator overnight. In the second day, cells were treated with compound at 8 serially diluted dose with 1000×final concentration in 100% DMSO. The compound was prepared as below: 1000×dilution tested compound solution to 40×test compound solution by adding 5μL, 1000×compound solution to 120 μL Medium (25-fold dilution). The solution was mixed by oscillation. DMSO was used as the control.
The medium was removed from the wells in the plate after the plate was taken out from incubator. Then, fresh medium of 195 μL/per well was added to the 96 well plate. 5μL/per well of 40×test compound solution was added into the 96 well plate. Finally, the plate was incubated for 7 days in a 37° C. 5% CO2 incubator. The medium containing compound was changed once on the fourth day. After 7 days, 20 μL of CCK-8 was added to each well and shake gently, then was cultured for 4 hours. The plate was shaken for 5 min after incubation, the absorbance values of 450 nm. and 650nm wavelengths were recorded respectively (OD=absorbance value of 450 nm−absorbance value of 650 nm) by using the multifunction readout instrument.
Data were analyzed by software GraphPad Prism 6.0. The inhibitory activity of compounds on cell proliferation was plotted using cell survival rate against the compound concentration as coordinates. Cell survival rate %=(ODcompound−ODbackground)/(ODDMSO−ODbackground)×100. The IC50 value was fitted by the s-shaped dose response curve equation: Y=100/(1+10^(log C−log IC50)), and C was the compound concentration.
Table 2 summarizes the inhibitory effect data (IC50) of the compounds on the proliferation of human breast cancer cells MDA-MB-436, wherein ++++ indicates 1<IC50≤10 nM; +++ indicates 10 nM<IC50≤100 nM; ++ indicates 100 nM<IC50≤1 μM; + indicates IC50>1 μM.

Molecules are shown by their SMILES.

PARP2, sequence (Q9UGN5 whole entry, species assumed): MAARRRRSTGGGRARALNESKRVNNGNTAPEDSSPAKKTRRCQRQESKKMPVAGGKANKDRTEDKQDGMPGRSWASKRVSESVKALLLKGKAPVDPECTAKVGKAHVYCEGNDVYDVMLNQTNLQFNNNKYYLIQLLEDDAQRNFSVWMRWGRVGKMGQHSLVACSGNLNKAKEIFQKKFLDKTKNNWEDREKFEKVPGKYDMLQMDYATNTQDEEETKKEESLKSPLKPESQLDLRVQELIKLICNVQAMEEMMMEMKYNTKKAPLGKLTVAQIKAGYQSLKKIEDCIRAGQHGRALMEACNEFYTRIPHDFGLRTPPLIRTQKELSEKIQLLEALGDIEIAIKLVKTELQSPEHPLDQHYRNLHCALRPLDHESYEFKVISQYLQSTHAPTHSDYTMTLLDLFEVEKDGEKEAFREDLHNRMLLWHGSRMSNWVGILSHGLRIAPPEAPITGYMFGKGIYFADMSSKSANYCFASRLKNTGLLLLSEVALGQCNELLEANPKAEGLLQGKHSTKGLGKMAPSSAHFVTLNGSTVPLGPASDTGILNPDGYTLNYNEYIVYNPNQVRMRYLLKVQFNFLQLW
PARP1, sequence (P09874 whole entry): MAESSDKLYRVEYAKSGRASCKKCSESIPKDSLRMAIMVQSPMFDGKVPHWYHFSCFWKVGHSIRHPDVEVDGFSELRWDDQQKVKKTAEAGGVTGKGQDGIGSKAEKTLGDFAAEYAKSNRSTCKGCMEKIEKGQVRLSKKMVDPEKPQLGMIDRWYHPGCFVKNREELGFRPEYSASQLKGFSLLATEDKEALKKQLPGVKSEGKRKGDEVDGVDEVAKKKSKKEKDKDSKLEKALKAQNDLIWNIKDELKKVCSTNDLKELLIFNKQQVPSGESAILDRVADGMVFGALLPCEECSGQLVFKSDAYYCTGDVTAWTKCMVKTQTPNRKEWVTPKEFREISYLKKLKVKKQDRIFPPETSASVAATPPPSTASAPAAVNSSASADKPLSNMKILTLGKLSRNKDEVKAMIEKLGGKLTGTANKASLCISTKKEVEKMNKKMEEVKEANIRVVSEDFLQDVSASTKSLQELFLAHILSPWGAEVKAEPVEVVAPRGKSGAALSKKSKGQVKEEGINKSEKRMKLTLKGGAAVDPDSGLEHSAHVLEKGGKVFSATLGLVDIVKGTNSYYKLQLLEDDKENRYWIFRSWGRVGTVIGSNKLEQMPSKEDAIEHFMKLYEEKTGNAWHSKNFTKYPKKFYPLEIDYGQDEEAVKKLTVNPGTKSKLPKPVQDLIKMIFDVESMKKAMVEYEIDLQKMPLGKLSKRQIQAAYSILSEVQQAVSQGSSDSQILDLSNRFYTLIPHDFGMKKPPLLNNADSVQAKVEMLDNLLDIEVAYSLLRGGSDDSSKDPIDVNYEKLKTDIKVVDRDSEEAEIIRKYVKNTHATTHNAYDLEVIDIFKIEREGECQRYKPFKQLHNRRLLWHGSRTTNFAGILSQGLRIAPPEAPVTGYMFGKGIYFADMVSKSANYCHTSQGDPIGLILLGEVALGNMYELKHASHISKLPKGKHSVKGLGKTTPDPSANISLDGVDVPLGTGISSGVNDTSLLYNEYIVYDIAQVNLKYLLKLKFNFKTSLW

As for `CCn1c(=O)[nH]c2cc(CN3CCN(c4ccc(C(=O)NC)nc4Cl)CC3)ccc2c1=O` [Example 21, 5-(4-((3-ethyl-2,4-dioxo-1,2,3,4-tetrahydroquinazolin-7-yl)methyl)piperazin-1-yl)-6-chloro-N-methylpicolinamide], the IC50 was 10 to 100 nM on PARP2, not above 1 nM at PARP1 and 1 to 10 nM with MDA-MB-436 cells.
The matching figures for `CCn1c(=O)[nH]c2cc(CN3CCN(c4ccc(C(=O)NC)nc4)CC3)ccc21` [Example 16, 5-(4-((1-ethyl-2-oxo-2,3-dihydro-1H-benzo[d]imidazol-5-yl)methyl)piperazin-1-yl)-N-methylpicolinamide]: more than 1000 nM, more than 1000 nM and more than 1000 nM.
The matching figures for `CCn1c(=O)[nH]c2cc(CN3CCN(c4ncc(C(=O)NC)cn4)CC3)ccc2c1=O` [Example 30, 2-(4-((3-ethyl-2,4-dioxo-1,2,3,4-tetrahydroquinazolin-7-yl)methyl)piperazin-1-yl)-N-methylpyrimidine-5-carboxamide]: 10 to 100 nM, 10 to 100 nM and more than 1000 nM.
The matching figures for `CCCn1c(=O)[nH]c2cc(CN3CCN(c4ccc(C(=O)NC)nc4)CC3)cnc2c1=O` [Example 7]: more than 1000 nM, not above 1 nM and more than 1000 nM.
Regarding `CCn1c(=O)[nH]c2cc(CN3CCN(c4ccc(C(=O)NC)cn4)CC3)ccc2c1=O` [Example 28, 6-(4-((3-ethyl-2,4-dioxo-1,2,3,4-tetrahydroquinazolin-7-yl)methyl)piperazin-1-yl)-N-methylnicotinamide], the IC50 at PARP2 is 100 to 1000 nM; on PARP1, 1 to 10 nM; with MDA-MB-436 cells, more than 1000 nM.
Taken in the same sequence, the figures for `CCc1nc(C(=O)NC)ccc1N1CCN(Cc2ccc3c(=O)n(CC)c(=O)[nH]c3c2)CC1` [Example 31, 5-(4-((3-ethyl-2,4-dioxo-1,2,3,4-tetrahydroquinazolin-7-yl)methyl)piperazin-1-yl)-6-ethyl-N-methylpicolinamide] were more than 1000 nM, not above 1 nM and 100 to 1000 nM.
In the case of `CCN1Cc2ccc(CN3CCN(c4ccc(C(=O)NC)nc4C)CC3)cc2NC1=O` [Example 116], the figures for the IC50 on PARP2, on PARP1 and in the test with MDA-MB-436 cells were more than 1000 nM, 1 to 10 nM and 10 to 100 nM, respectively.
As to `CCN1Cc2ccc(CN3CCN(c4ccc(C(=O)NC)nc4Cl)CC3)cc2NC1=O` [Example 115], the results for the IC50 on PARP2, at PARP1 and in the test with MDA-MB-436 cells were more than 1000 nM, 1 to 10 nM and 1 to 10 nM, respectively.
For the compound `CNC(=O)c1ccc(N2CCN(Cc3cnc4c(=O)n(C(C)C)c(=O)[nH]c4c3)CC2)cn1` [Example 3, 5-(4-((3-isopropyl-2,4-dioxo-1,2,3,4-tetrahydropyrido[3,2-d]pyrimidin-7-yl)methyl)piperazin-1-yl)-N-methylpicolinamide], the IC50 on PARP2 was more than 1000 nM; on PARP1, 10 to 100 nM; in the test on MDA-MB-436 cells, more than 1000 nM.
Consider `CCn1c(=O)[nH]c2cc(CN3CCN(c4ccc(C(=O)NC)nc4C)CC3)ccc2c1=O` [Example 22, 5-(4-((3-ethyl-2,4-dioxo-1,2,3,4-tetrahydroquinazolin-7-yl)methyl)piperazin-1-yl)-N,6-dimethylpicolinamide], for which the figures for the IC50 at PARP2, at PARP1 and with MDA-MB-436 cells were more than 1000 nM, 1 to 10 nM and 1 to 10 nM, respectively.
As to `CCNC(=O)c1ccc(N2CCN(Cc3ccc4c(c3)NC(=O)N(CC)C4)CC2)c(C)n1` [Example 117, 5-(4-((3-ethyl-2-oxo-1,2,3,4-tetrahydroquinazolin-7-yl)methyl)piperazin-1-yl)-6-methyl-N-ethylpicolinamide], the IC50 on PARP2 is more than 1000 nM; at PARP1, 1 to 10 nM; in the test on MDA-MB-436 cells, 1 to 10 nM.
Turning to `CCNC(=O)c1ccc(N2CCN(Cc3ccc4c(=O)n(CC)c(=O)[nH]c4c3)CC2)c(F)n1` [Example 33, 5-(4-((3-ethyl-2,4-dioxo-1,2,3,4-tetrahydroquinazolin-7-yl)methyl)piperazin-1-yl)-6-fluoro-N-ethylpicolinamide], the 50% inhibitory concentration (IC50) at PARP2 lay within 100 to 1000 nM; at PARP1 it was 1 to 10 nM; with MDA-MB-436 cells it was 1 to 10 nM.
On to `CCn1c(=O)[nH]c2cc(CN3CCN(c4ccc(C(=O)NC)nc4)CC3)ccc2c1=O` [Example 12, 5-(4-((3-ethyl-2,4-dioxo-1,2,3,4-tetrahydroquinazolin-7-yl)methyl)piperazin-1-yl)-N-methylpicolinamide], for which the values for the IC50 at PARP2, at PARP1 and with MDA-MB-436 cells were 100 to 1000 nM, 1 to 10 nM and 10 to 100 nM, respectively.
Taken in the same sequence, the figures for `CNC(=O)c1ccc(N2CCN(Cc3ccc4c(=O)n(C(C)C)c(=O)[nH]c4c3)CC2)c(F)n1` [Example 26, 5-(4-((3-isopropyl-2,4-dioxo-1,2,3,4-tetrahydroquinazolin-7-yl)methyl)piperazin-1-yl)-6-fluoro-N-methylpicolinamide] were more than 1000 nM, 1 to 10 nM and 100 to 1000 nM.
`CCn1c(=O)[nH]c2cc(-c3cc(F)cc(C(=O)Nc4ccc(C(=O)NC)nc4)c3)ccc2c1=O` [Example 43, 5-(3-(3-ethyl-2,4-dioxo-1,2,3,4-tetrahydroquinazolin-7-yl)-5-fluorobenzamido)-N-methylpicolinamide] came in with an IC50 in the test on MDA-MB-436 cells of more than 1000 nM.
`CCNC(=O)c1ccc(N2CCN(Cc3cc(F)c4c(c3)NC(=O)N(CC)C4)CC2)c(Cl)n1` [Example 122, 6-chloro-N-ethyl-5-(4-((3-ethyl-5-fluoro-2-oxo-1,2,3,4-tetrahydroquinazolin-7-yl)methyl)piperazin-1-yl)picolinamide]: the IC50 on PARP1 fell in the range of 1 to 10 nM; with MDA-MB-436 cells it was 10 to 100 nM.
As to `CCn1c(=O)[nH]c2nc(CN3CCN(c4ccc(C(=O)NC)nc4C)CC3)ccc2c1=O` [Example 74, 5-(4-((3-ethyl-2,4-dioxo-1,2,3,4-tetrahydropyrido[2,3-d]pyrimidin-7-yl)methyl)piperazin-1-yl)-N,6-dimethylpicolinamide], the half-inhibitory concentration (IC50) with MDA-MB-436 cells is more than 1000 nM.
With `CCn1c(=O)[nH]c2cc(CN3CCN(c4ccc(C(=O)NC)cc4F)CC3)ccc2c1=O` [Example 69, 4-(4-((3-ethyl-2,4-dioxo-1,2,3,4-tetrahydroquinazolin-7-yl)methyl)piperazin-1-yl)-3-fluoro-N-methyibenzamide], the IC50 with MDA-MB-436 cells is more than 1000 nM.
On the same count and under the same terms, the result for `CCn1c(=O)[nH]c2cc(CN3CCN(c4ccc(C(=O)NC)nc4)CC3)ncc2c1=O` [Example 5, 5-(4-((3-ethyl-2,4-dioxo-1,2,3,4-tetrahydropyrido[4,3-d]pyrimidin-7-yl)methyl)piperazin-1-yl)-N-methylpicolinamide] reads more than 1000 nM.
The same measure, in the same setting: the result for `CCn1c(=O)[nH]c2cc(CN3CCN(c4ccc5[nH]ncc5c4)CC3)ccc2c1=O` [Example 112, 7-((4-(1H-indazol-5-yl)piperazin-1-yl)methyl)-3-ethylquinazoline-2,4(1H,3H)-dione] reads more than 1000 nM.
Same read-out and setting: the result for `CCn1c(=O)[nH]c2cc(CN3CCN(c4ccc(C(=O)NC)nc4C)CC3)cc(F)c2c1=O` [Example 56, 5-(4-((3-ethyl-5-fluoro-2,4-dioxo-1,2,3,4-tetrahydroquinazolin-7-yl)methyl)piperazin-1-yl)-N,6-dimethylpicolinamide] reads 10 to 100 nM.

What is called IC50 is the concentration that inhibits the measured activity by half.
